Measurements reported in ChEMBL document CHEMBL1201862, “PubChem BioAssay data set” (2004).
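Grown in 96-well plates, cells were treated for 48 hours with each compound at five concentrations. Insufficient inhibition: endpoint recorded as highest concentration tested. The concentration for 50% growth inhibition is given as GI50.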 Calls of active or inactive are those of the source. Rule as the data show it: active = GI50 up to about 1.1 µM and inactive = higher.

What was measured:
Experiment in all cases: inhibition of tumour cell growth, NCI panel, 48 h
TK-10 = system: TK-10
CCRF-CEM = system: CCRF-CEM
EKVX = system: EKVX
IGROV-1 = system: IGROV-1
HOP-92 = system: HOP-92
CAKI-1 = system: CAKI-1
KM12 = system: KM12
MDA-N = system: MDA-N
SK-MEL-2 = system: SK-MEL-2
A498 = system: A498
MDA-MB-231 = system: MDA-MB-231
SK-MEL-28 = system: SK-MEL-28
SW-620 = system: SW-620
NCI-H460 = system: NCI-H460
MDA-MB-435 = system: MDA-MB-435
OVCAR-8 = system: OVCAR-8
SF-295 = system: SF-295
A549 = system: A549
NCI-H23 = system: NCI-H23
MCF7 = system: MCF7
NCI/ADR-RES = system: NCI/ADR-RES
OVCAR-3 = system: OVCAR-3
U-251 = system: U-251
HOP-62 = system: HOP-62
ACHN = system: ACHN
786-0 = system: 786-0
M14 = system: M14
HCT-116 = system: HCT-116
OVCAR-4 = system: OVCAR-4
HCC 2998 = system: HCC 2998
SK-OV-3 = system: SK-OV-3
HL-60 = system: HL-60
LOX IMVI = system: LOX IMVI
BT-549 = system: BT-549
UO-31 = system: UO-31
UACC-62 = system: UACC-62
RPMI-8226 = system: RPMI-8226
DU-145 = system: DU-145
COLO 205 = system: COLO 205
OVCAR-5 = system: OVCAR-5
SNB-75 = system: SNB-75
Hs-578T = system: Hs-578T
T47D = system: T47D
NCI-H226 = system: NCI-H226
SF-268 = system: SF-268
NCI-H522 = system: NCI-H522
HT-29 = system: HT-29
K562 = system: K562
PC-3 = system: PC-3
HCT-15 = system: HCT-15
SR = system: SR
UACC-257 = system: UACC-257
SN12C = system: SN12C
RXF 393 = system: RXF 393
SNB-19 = system: SNB-19
SK-MEL-5 = system: SK-MEL-5
MOLT-4 = system: MOLT-4
SF-539 = system: SF-539
Malme-3M = system: Malme-3M

## O=C1/C(=C\c2cccs2)Oc2ccccc21
TK-10
  GI50: 90.6 µM (inactive)
CCRF-CEM
  GI50: 57.7 µM (inactive)
EKVX
  GI50: 25.9 µM (inactive)
IGROV-1
  GI50: 26.7 µM (inactive)
HOP-92
  GI50: 35.2 µM (inactive)
CAKI-1
  GI50: 33.6 µM (inactive)
KM12
  GI50: 59.4 µM (inactive)
MDA-N
  GI50: > 100 µM (inactive)
SK-MEL-2
  GI50: > 100 µM (inactive)
A498
  GI50: 42.3 µM (inactive)
MDA-MB-231
  GI50: 71.1 µM (inactive)
SK-MEL-28
  GI50: > 100 µM (inactive)
SW-620
  GI50: > 100 µM (inactive)
NCI-H460
  GI50: 53.1 µM (inactive)
MDA-MB-435
  GI50: 98.6 µM (inactive)
OVCAR-8
  GI50: 70.8 µM (inactive)
SF-295
  GI50: 74 µM (inactive)
A549
  GI50: 56.9 µM (inactive)
NCI-H23
  GI50: 40.6 µM (inactive)
MCF7
  GI50: 28.9 µM (inactive)
NCI/ADR-RES
  GI50: 54.7 µM (inactive)
OVCAR-3
  GI50: 24.9 µM (inactive)
U-251
  GI50: 51.6 µM (inactive)
HOP-62
  GI50: 39.9 µM (inactive)
ACHN
  GI50: 47.2 µM (inactive)
786-0
  GI50: 77.6 µM (inactive)
M14
  GI50: 84.5 µM (inactive)
HCT-116
  GI50: 60.4 µM (inactive)
OVCAR-4
  GI50: 31.5 µM (inactive)
HCC 2998
  GI50: 64.6 µM (inactive)
SK-OV-3
  GI50: 38 µM (inactive)
HL-60
  GI50: 49.8 µM (inactive)
LOX IMVI
  GI50: 51.3 µM (inactive)
BT-549
  GI50: 41.2 µM (inactive)
UO-31
  GI50: 33 µM (inactive)
UACC-62
  GI50: 75.2 µM (inactive)
RPMI-8226
  GI50: 69.5 µM (inactive)
DU-145
  GI50: 50.9 µM (inactive)
COLO 205
  GI50: 75.3 µM (inactive)
OVCAR-5
  GI50: > 100 µM (inactive)
SNB-75
  GI50: 55.7 µM (inactive)
Hs-578T
  GI50: 45.7 µM (inactive)
T47D
  GI50: 2.99 µM (inactive)
NCI-H226
  GI50: 58.1 µM (inactive)
SF-268
  GI50: 51.1 µM (inactive)
NCI-H522
  GI50: 39.8 µM (inactive)
HT-29
  GI50: 63.7 µM (inactive)
K562
  GI50: 74.5 µM (inactive)
PC-3
  GI50: 43.2 µM (inactive)
HCT-15
  GI50: 36.6 µM
SR
  GI50: > 100 µM (inactive)
UACC-257
  GI50: 63.1 µM (inactive)
SN12C
  GI50: > 100 µM (inactive)
RXF 393
  GI50: 65.8 µM (inactive)
SNB-19
  GI50: 75.3 µM (inactive)
SK-MEL-5
  GI50: 51.6 µM (inactive)
MOLT-4
  GI50: 33.9 µM (inactive)

## CCCCCC(C)SC1(C(=O)OC)CC(OC(C)=O)C(NC(C)=O)C([C@H](OC(C)=O)[C@@H](COC(C)=O)OC(C)=O)O1 (some centres undefined)
TK-10
  GI50: > 100 µM (inactive)
IGROV-1
  GI50: > 100 µM (inactive)
HOP-92
  GI50: 44.4 µM (inactive)
CAKI-1
  GI50: 93.3 µM (inactive)
KM12
  GI50: 66.7 µM (inactive)
MDA-N
  GI50: 90.6 µM (inactive)
SK-MEL-2
  GI50: 0.245 µM (active)
A498
  GI50: 67.1 µM (inactive)
MDA-MB-231
  GI50: 41.9 µM (inactive)
SF-539
  GI50: 22.3 µM (inactive)
SK-MEL-28
  GI50: > 100 µM (inactive)
SW-620
  GI50: > 100 µM (inactive)
NCI-H460
  GI50: 78.7 µM (inactive)
MDA-MB-435
  GI50: 70.1 µM (inactive)
OVCAR-8
  GI50: 83.2 µM (inactive)
SF-295
  GI50: > 100 µM (inactive)
A549
  GI50: 21.2 µM (inactive)
NCI-H23
  GI50: > 100 µM (inactive)
MCF7
  GI50: 43.7 µM (inactive)
NCI/ADR-RES
  GI50: > 100 µM (inactive)
OVCAR-3
  GI50: 90.4 µM (inactive)
U-251
  GI50: > 100 µM (inactive)
HOP-62
  GI50: > 100 µM (inactive)
Malme-3M
  GI50: 44.1 µM (inactive)
ACHN
  GI50: > 100 µM (inactive)
786-0
  GI50: 47 µM (inactive)
M14
  GI50: 71 µM (inactive)
HCT-116
  GI50: 43.9 µM (inactive)
HCC 2998
  GI50: 30.2 µM (inactive)
HL-60
  GI50: 42.5 µM (inactive)
BT-549
  GI50: 55.6 µM (inactive)
UO-31
  GI50: 38.5 µM (inactive)
RPMI-8226
  GI50: 33.7 µM (inactive)
DU-145
  GI50: > 100 µM (inactive)
OVCAR-5
  GI50: > 100 µM (inactive)
SNB-75
  GI50: > 100 µM (inactive)
Hs-578T
  GI50: 29.4 µM (inactive)
T47D
  GI50: 45.6 µM (inactive)
NCI-H226
  GI50: 40.6 µM (inactive)
SF-268
  GI50: > 100 µM (inactive)
NCI-H522
  GI50: 51.2 µM (inactive)
HT-29
  GI50: 22.5 µM (inactive)
K562
  GI50: 92.9 µM (inactive)
PC-3
  GI50: 67.3 µM (inactive)
HCT-15
  GI50: 34.5 µM
SR
  GI50: 64 µM (inactive)
UACC-257
  GI50: 33 µM (inactive)
SN12C
  GI50: > 100 µM (inactive)
RXF 393
  GI50: 88.1 µM (inactive)
SNB-19
  GI50: > 100 µM (inactive)
SK-MEL-5
  GI50: 91.2 µM (inactive)
MOLT-4
  GI50: 27.3 µM (inactive)

## O=C(O)Cn1ncn(NC(=O)Cc2ccccc2)c1=S
TK-10
  GI50: > 10 µM (inactive)
CCRF-CEM
  GI50: > 10 µM (inactive)
EKVX
  GI50: > 10 µM (inactive)
IGROV-1
  GI50: > 10 µM (inactive)
HOP-92
  GI50: > 10 µM (inactive)
CAKI-1
  GI50: > 10 µM (inactive)
KM12
  GI50: > 10 µM (inactive)
MDA-N
  GI50: > 10 µM (inactive)
A498
  GI50: > 10 µM (inactive)
MDA-MB-231
  GI50: > 10 µM (inactive)
SF-539
  GI50: > 10 µM (inactive)
SK-MEL-28
  GI50: > 10 µM (inactive)
SW-620
  GI50: > 10 µM (inactive)
NCI-H460
  GI50: > 10 µM (inactive)
MDA-MB-435
  GI50: > 10 µM (inactive)
OVCAR-8
  GI50: > 10 µM (inactive)
SF-295
  GI50: > 10 µM (inactive)
A549
  GI50: > 10 µM (inactive)
NCI-H23
  GI50: > 10 µM (inactive)
MCF7
  GI50: > 10 µM (inactive)
NCI/ADR-RES
  GI50: > 10 µM (inactive)
OVCAR-3
  GI50: > 10 µM (inactive)
U-251
  GI50: > 10 µM (inactive)
HOP-62
  GI50: > 10 µM (inactive)
Malme-3M
  GI50: > 10 µM (inactive)
ACHN
  GI50: > 10 µM (inactive)
786-0
  GI50: > 10 µM (inactive)
M14
  GI50: > 10 µM (inactive)
HCT-116
  GI50: > 10 µM (inactive)
OVCAR-4
  GI50: > 10 µM (inactive)
HCC 2998
  GI50: > 10 µM (inactive)
SK-OV-3
  GI50: > 10 µM (inactive)
LOX IMVI
  GI50: > 10 µM (inactive)
BT-549
  GI50: > 10 µM (inactive)
UO-31
  GI50: > 10 µM (inactive)
UACC-62
  GI50: > 10 µM (inactive)
RPMI-8226
  GI50: > 10 µM (inactive)
DU-145
  GI50: > 10 µM (inactive)
COLO 205
  GI50: > 10 µM (inactive)
OVCAR-5
  GI50: > 10 µM (inactive)
SNB-75
  GI50: > 10 µM (inactive)
Hs-578T
  GI50: > 10 µM (inactive)
T47D
  GI50: > 10 µM (inactive)
SF-268
  GI50: > 10 µM (inactive)
NCI-H522
  GI50: > 10 µM (inactive)
HT-29
  GI50: > 10 µM (inactive)
K562
  GI50: > 10 µM (inactive)
PC-3
  GI50: > 10 µM (inactive)
HCT-15
  GI50: > 10 µM
SR
  GI50: > 10 µM (inactive)
UACC-257
  GI50: > 10 µM (inactive)
SN12C
  GI50: > 10 µM (inactive)
SNB-19
  GI50: > 10 µM (inactive)
SK-MEL-5
  GI50: > 10 µM (inactive)
MOLT-4
  GI50: > 10 µM (inactive)
